Where two headings read alike, the source gives them in different places.

One series deals with T1, TDP1 (148–608) (Homo sapiens, UniProt Q9NUW8).
T1 construct: was incubated with recombinant full-length TDP1 or TDP1 (148–608) (40 p.m.)
Description: Gel-based fluorescence assay of TDP1-catalyzed hydrolysis, truncated TDP1 (148–608). It is filed as biochemical. To be noted: for IC50: truncated TDP1 (148–608) catalytic domain, 5′-Cy5 N14Y DNA substrate, 15 min, room temperature, repeated three times. As to the method: (§1) The synthetic products were examined for their ability to inhibit TDP1 catalysis in in vitro gel-based fluorescence assays as previously described ([Lountos et al., 2019]; [Zhao et al., 2021]). A 5′-Cy5-labelled DNA substrate (N14Y, 5′-Cy5-[…]-pY-3′) was incubated in TDP1 reaction buffer with recombinant TDP1 ([…].) or truncated TDP1 (148–608) in the absence or presence of inhibitors for 15 min at room temperature. Inhibitors were evaluated at concentrations ranging from 12 μM to 27 mM (Figure 4). The TDP1 inhibition values were calculated based on gel images of cleavage product (N14P, 5′-Cy5-[…]-p-3′) shown in Figure 4 and listed in Table 1.
(§2) The inhibition of TDP1 was also conducted according to gel-based as previously described ([Lountos et al., 2019]; [Zhao et al., 2021]). Briefly, the DNA substrate (1 nM, 5′Cy5-[…]-pY-3′) was incubated with recombinant full-length TDP1 or TDP1 (148–608) (40 p.m.) in the absence or presence of inhibitors for 15 min at room temperature in TDP1 reaction buffer (50 mM Tris HCl, pH 7.5, 80 mM KCl, 2 mM EDTA, 1 mM DTT, 40 μg/ml BSA and 0.01% Tween-20). Reactions were stopped by adding an equal volume of gel loading buffer (99.5% (v/v) formamide, 5 mM EDTA). Samples were then subjected to a 20% denaturing PAGE gel following by gel scanning using a Typhoon FLA 9500 scanner (GE Healthcare). The IC50 values of TDP1 inhibitors were calculated by comparing the percentage of cleavage product (5′Cy5-[…]-p-3′) to DMSO control.

For series [1], the target named is T2, full-length TDP1 (Homo sapiens, UniProt Q9NUW8).
T2 construct: was incubated with recombinant full-length TDP1 or TDP1 (148–608) (40 p.m.)
T2 sequence (Q9NUW8 whole entry): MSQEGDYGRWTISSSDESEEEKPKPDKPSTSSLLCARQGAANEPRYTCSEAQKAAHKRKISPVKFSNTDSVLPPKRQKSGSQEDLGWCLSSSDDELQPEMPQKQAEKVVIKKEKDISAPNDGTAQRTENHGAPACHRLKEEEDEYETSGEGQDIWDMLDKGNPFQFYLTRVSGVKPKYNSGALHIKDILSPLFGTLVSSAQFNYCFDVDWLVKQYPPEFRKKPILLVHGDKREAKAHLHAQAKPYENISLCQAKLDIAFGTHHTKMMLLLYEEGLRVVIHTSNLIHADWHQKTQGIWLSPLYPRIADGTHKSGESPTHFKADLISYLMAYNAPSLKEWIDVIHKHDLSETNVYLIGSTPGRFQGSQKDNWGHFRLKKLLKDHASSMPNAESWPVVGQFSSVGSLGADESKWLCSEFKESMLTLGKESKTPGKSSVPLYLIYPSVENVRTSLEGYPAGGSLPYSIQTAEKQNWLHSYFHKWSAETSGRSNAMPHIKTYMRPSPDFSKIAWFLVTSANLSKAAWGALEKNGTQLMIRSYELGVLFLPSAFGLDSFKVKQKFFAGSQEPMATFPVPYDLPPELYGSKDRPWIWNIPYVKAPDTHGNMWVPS
Nature of the series: Gel-based fluorescence assay of TDP1-catalyzed hydrolysis, full-length TDP1. As to conditions: for IC50: full-length recombinant TDP1, 5′-Cy5 N14Y DNA substrate, 15 min, room temperature, repeated three times. It is filed as biochemical. As to the method: as §1, §2

Series [2] is described as follows: Drug solubility observed at high concentrations in the gel assay. In kind it is physicochemical. As to conditions: high concentrations in TDP1 gel assay (crescent vague bands); series up to 9 mM (3c) or 27 mM. The method, then: FIGURE 4 Representative gels for inhibition of full-length TDP1-catalyzed hydrolysis by phenylphosphonic acids 3a—3e and benzylphosphonic acids 4a—4c. In each gel: lane 1, N14Y only; lane 2, N14Y and TDP1; lanes 3–10, 3-fold serial dilution of drugs from 12 μM to 27 mM except for 3c from 12 μM to 9 mM.

In series [3] the target is T2, full-length TDP1. Also on record: method as in Zhao et al., 2021. As to conditions: gel-based fluorescence assay, compounds reported in previous paper, ref Zhao et al., 2021; cited from earlier work.

T1 sequence (Q9NUW8 148-608): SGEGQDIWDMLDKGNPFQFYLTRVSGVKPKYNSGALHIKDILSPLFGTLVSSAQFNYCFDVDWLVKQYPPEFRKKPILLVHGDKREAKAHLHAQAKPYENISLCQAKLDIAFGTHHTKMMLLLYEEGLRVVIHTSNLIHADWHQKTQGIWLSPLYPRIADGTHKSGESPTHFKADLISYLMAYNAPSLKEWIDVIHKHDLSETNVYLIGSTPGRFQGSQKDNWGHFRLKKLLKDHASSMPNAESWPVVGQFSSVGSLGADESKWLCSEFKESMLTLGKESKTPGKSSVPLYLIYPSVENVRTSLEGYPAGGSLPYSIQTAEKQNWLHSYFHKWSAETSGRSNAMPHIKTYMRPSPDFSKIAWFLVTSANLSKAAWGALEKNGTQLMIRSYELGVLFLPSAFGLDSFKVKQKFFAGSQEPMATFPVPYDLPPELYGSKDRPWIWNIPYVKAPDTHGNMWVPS

Take `O=P(O)(O)c1ccc(Nc2c(-c3ccccc3)nc3cc(-c4ccccc4)ccn23)cc1` [Compound 3c, (4-((2,7-Diphenylimidazo [1,2-a]pyridin-3-yl)amino)phenyl)phosphonic acid]: the “More potent using catalytic domain TDP1 (148–608) relative to full-length TDP1” value at TDP1 (148–608) (TDP1 (148–608) vs full-length TDP1) was determined as 2 fold. Also, the results for the IC50 against TDP1 (148–608) and on full-length TDP1 [1] were 225 ± 2.3 µM and 545 ± 8 µM, respectively. In addition, the Drug solubility entry in series [2] is on record as “poor drug solubility”.

Consider `O=P(O)(O)c1ccc(Nc2c(-c3ccccc3)nc3ccccn23)cc1` [Compound 3b, (4-((2-Phenylimidazo [1,2-a]pyridin-3-yl)amino)phenyl)phosphonic acid], for which the IC50 against TDP1 (148–608) was 3810 ± 751 µM; at full-length TDP1 [1], 1660 ± 160 µM.

As for `O=P(O)(O)Cc1ccc(Nc2c(-c3ccccc3)nc3cnccn23)cc1` [Compound 4a, (4-((2-Phenylimidazo [1,2-a]pyrazin-3-yl)amino)benzyl)phosphonic acid], the half-maximal inhibitory concentration (IC50) against TDP1 (148–608) came out at 4360 ± 472 µM; at full-length TDP1 [1] it was 1280 ± 112 µM.

Consider `O=P(O)(O)Cc1ccc(Nc2c(-c3ccccc3)nc3cc(-c4ccccc4)ccn23)cc1` [Compound 4c, (4-((2,7-Diphenylimidazo [1,2-a]pyridin-3-yl)amino)benzyl)phosphonic acid], for which the concentration for half-maximal inhibition (IC50) against TDP1 (148–608) worked out at 1190 ± 350 µM; at full-length TDP1 [1] it was 583 ± 11.5 µM. The “Increase of inhibitory potency on adding a 7-phenyl group” value at full-length TDP1 [1] (full-length TDP1, 3c and 3e relative to 3b and 3d, 4c relative to 4b) is on record as “approximately 3 fold”.

Consider `O=P(O)(O)c1ccc(Nc2c(-c3ccccc3O)nc3cc(-c4ccccc4)ccn23)cc1` [Compound 3e, (4-((2-(2-Hydroxyphenyl)-7-phenylimidazo [1,2-a]pyridin-3-yl)amino)phenyl)phosphonic acid], for which the IC50 on TDP1 (148–608) is 605 ± 32 µM; on full-length TDP1 [1], 293 ± 7.5 µM. Further, the Drug solubility entry in series [2] is listed as “poor drug solubility”.

Regarding `O=C(O)c1ccc(Nc2c(-c3ccccc3)nc3cnccn23)cc1C(=O)O` [Compound 2a], at full-length TDP1 [3], the half-inhibitory concentration (IC50) was more than 100 µM.

Regarding `O=P(O)(O)c1ccc(Nc2c(-c3ccccc3)nc3cnccn23)cc1` [Compound 3a, (4-((2-Phenylimidazo [1,2-a]pyrazin-3-yl)amino)phenyl)phosphonic acid], the results for the 50% inhibitory concentration (IC50) at TDP1 (148–608) and at full-length TDP1 [1] were 4720 ± 430 µM and 2450 ± 36 µM, respectively.

`O=P(O)(O)Cc1ccc(Nc2c(-c3ccccc3)nc3ccccn23)cc1` [Compound 4b, (4-((2-Phenylimidazo [1,2-a]pyridin-3-yl)amino)benzyl)phosphonic acid]: the half-inhibitory concentration (IC50) turned out to be 4810 ± 228 µM against TDP1 (148–608) and 1650 ± 850 µM at full-length TDP1 [1].

Take `O=P(O)(O)c1ccc(Nc2c(-c3ccccc3O)nc3ccccn23)cc1` [Compound 3d, (4-((2-(2-Hydroxyphenyl)imidazo [1,2-a]pyridin-3-yl)amino)phenyl)phosphonic acid]: the half-maximal inhibitory concentration (IC50) on TDP1 (148–608) worked out at 4480 ± 50 µM; at full-length TDP1 [1], 1580 ± 166 µM.

In general, IC50 refers to the midpoint of a concentration-inhibition curve.

These data come from article PMC9424690, “Phosphonic acid-containing inhibitors of tyrosyl-DNA phosphodiesterase 1” (Frontiers in Chemistry, 2022).
